Measurements reported in patent US10899744B2, “Crystalline form of compound suppressing protein kinase activity, and application thereof” (XCOVERY HOLDINGS, INC., priority 2016, dated 2021).
pIC50: −log10 of the molar value. Counter-ions that a name gives are not always drawn.

Experiments:
[1] = Stability of the crystalline form; format: physicochemical
EPHB1 = target: T1, EPHB1 (Homo sapiens, UniProt P54762); assay: Biochemical kinase activity (Reaction Biology Corp)
T1 construct: purchased Reaction Biology Corp (contract testing)
Experimental: (§1) Biochemical kinase activity of the compound as shown in formula I was tested by Reaction Biology Corp located in Malvern, Pa., USA. The testing rules is described in Nat Biotechnol.

ALK (G1269S) = target: T2, ALK (G1269S) (Homo sapiens, UniProt Q9UM73, G1269S); assay: as above
T2 construct: purchased Reaction Biology Corp (contract testing)
Experimental: as §1

ALK = target: T3, ALK (Homo sapiens, UniProt Q9UM73); assay: as above
T3 construct: purchased Reaction Biology Corp (contract testing)
Experimental: as §1

ALK (G1202R) = target: T4, ALK (G1202R) (Homo sapiens, UniProt Q9UM73, G1202R); assay: as above
T4 construct: purchased Reaction Biology Corp (contract testing)
Experimental: as §1

ROS1-GOPC = target: T5, ROS1-GOPC (Homo sapiens, UniProt P08922); assay: as above
T5 construct: fused on or other part: Q9HD26 (Golgi-associated PDZ and coiled-coil motif-containing protein)
Experimental: as §1

TRKC = target: T6, TRKC (Homo sapiens, UniProt Q16288); assay: as above
T6 construct: purchased Reaction Biology Corp
Experimental: as §1

ALK (C1156Y) = target: T7, ALK (C1156Y) (Homo sapiens, UniProt Q9UM73, C1156Y); assay: as above
T7 construct: purchased Reaction Biology Corp (contract testing)
Experimental: as §1

ALK(L1152R) = target: T8, ALK(L1152R) (Homo sapiens, UniProt Q9UM73, L1152R); assay: as above
T8 construct: purchased Reaction Biology Corp (contract testing)
Experimental: as §1

EPHA2 = target: T9, EPHA2 (Homo sapiens, UniProt P29317); assay: as above
T9 construct: purchased Reaction Biology Corp (contract testing)
Experimental: as §1

TRKB = target: T10, TRKB (Homo sapiens, UniProt Q16620); assay: as above
T10 construct: purchased Reaction Biology Corp
Experimental: as §1

TRKA-TPR = target: T11, TRKA-TPR (Homo sapiens, UniProt P04629); assay: as above
T11 construct: fused on or other part: P12270 (Nucleoprotein TPR)
Experimental: as §1

ALK (R1275Q) = target: T12, ALK (R1275Q) (Homo sapiens, UniProt Q9UM73, R1275Q); assay: as above
T12 construct: purchased Reaction Biology Corp (contract testing)
Experimental: as §1

ALK (T1151M) = target: T13, ALK (T1151M) (Homo sapiens, UniProt Q9UM73, T1151M); assay: as above
T13 construct: purchased Reaction Biology Corp (contract testing)
Experimental: as §1

EPHA1 = target: T14, EPHA1 (Homo sapiens, UniProt P21709); assay: as above
T14 construct: purchased Reaction Biology Corp (contract testing)
Experimental: as §1

ROS/ROS1 = target: T15, ROS/ROS1 (Homo sapiens, UniProt P08922); assay: as above
T15 construct: purchased Reaction Biology Corp (contract testing)
Experimental: as §1

TRKA-TFG (TRK-T3) = target: T16, TRKA-TFG (TRK-T3) (Homo sapiens, UniProt P04629); assay: as above
T16 construct: TFG (fusion partner, UniProt Q92734); purchased Reaction Biology Corp; the other entry of the earlier key: TFG (Q92734, Protein TFG)
Experimental: as §1

TRKA-TPM3 = target: T17, TRKA-TPM3 (Homo sapiens, UniProt P04629); assay: as above
T17 construct: fused on or other part: P06753 (Tropomyosin alpha-3 chain)
Experimental: as §1

TRKA = target: T18, TRKA (Homo sapiens, UniProt P04629); assay: as above
T18 construct: purchased Reaction Biology Corp (contract testing)
Experimental: as §1

ALK (F1174L) = target: T19, ALK (F1174L) (Homo sapiens, UniProt Q9UM73, F1174L); assay: as above
T19 construct: purchased Reaction Biology Corp (contract testing)
Experimental: as §1

c-MET = target: T20, c-MET (Homo sapiens, UniProt P08581); assay: as above
T20 construct: purchased Reaction Biology Corp (contract testing)
Experimental: as §1

ALK-NPM1 = target: T21, ALK-NPM1 (Homo sapiens, UniProt Q9UM73); assay: as above
T21 construct: NPM1 part (fusion partner); purchased Reaction Biology Corp (contract testing); the other entry of the earlier key: NPM1 (P06748, Nucleophosmin)
Experimental: as §1

ALK (T1151-L1152insT) = target: T22, ALK (T1151-L1152insT) (Homo sapiens, UniProt Q9UM73, INS1151T); assay: as above
T22 construct: purchased Reaction Biology Corp (contract testing)
Experimental: as §1

CSF1R (FMS) = target: T23, CSF1R (FMS) (Homo sapiens, UniProt P07333); assay: as above
T23 construct: purchased Reaction Biology Corp (contract testing)
Experimental: as §1

ALK (Fl 174L)-EML4 = target: T24, ALK (Fl 174L)-EML4 (Homo sapiens, UniProt Q9UM73, F1174L); assay: as above
T24 construct: EML4 part (fusion partner); purchased Reaction Biology Corp (contract testing)
Experimental: as §1

ALK(L1196M) = target: T25, ALK(L1196M) (Homo sapiens, UniProt Q9UM73, L1196M); assay: as above
T25 construct: purchased Reaction Biology Corp (contract testing)
Experimental: as §1

ALK (Fl 174L)-NPM1 = target: T26, ALK (Fl 174L)-NPM1 (Homo sapiens, UniProt Q9UM73, F1174L); assay: as above
T26 construct: NPM1 part (fusion partner); purchased Reaction Biology Corp (contract testing); the other entry of the earlier key: NPM1 (P06748, Nucleophosmin)
Experimental: as §1

ALK (G1269A) = target: T27, ALK (G1269A) (Homo sapiens, UniProt Q9UM73, G1269A); assay: as above
T27 construct: purchased Reaction Biology Corp (contract testing)
Experimental: as §1

ALK-TPM3 = target: T28, ALK-TPM3 (Homo sapiens, UniProt Q9UM73); assay: as above
T28 construct: fused on or other part: P06753 (Tropomyosin alpha-3 chain)
Experimental: as §1

NEK1 = target: T29, NEK1 (Homo sapiens, UniProt Q96PY6); assay: as above
T29 construct: purchased Reaction Biology Corp (contract testing)
Experimental: as §1

ALK-TFG = target: T30, ALK-TFG (Homo sapiens, UniProt Q9UM73); assay: as above
T30 construct: fused on or other part: Q92734 (Protein TFG)
Experimental: as §1

ALK (F1174S) = target: T31, ALK (F1174S) (Homo sapiens, UniProt Q9UM73, F1174S); assay: as above
T31 construct: purchased Reaction Biology Corp (contract testing)
Experimental: as §1

ALK (S1206R) = target: T32, ALK (S1206R) (Homo sapiens, UniProt Q9UM73, S1206R); assay: as above
T32 construct: purchased Reaction Biology Corp (contract testing)
Experimental: as §1

[2] = cited from earlier work

T4 sequence (Q9UM73 19-1620 G1202R): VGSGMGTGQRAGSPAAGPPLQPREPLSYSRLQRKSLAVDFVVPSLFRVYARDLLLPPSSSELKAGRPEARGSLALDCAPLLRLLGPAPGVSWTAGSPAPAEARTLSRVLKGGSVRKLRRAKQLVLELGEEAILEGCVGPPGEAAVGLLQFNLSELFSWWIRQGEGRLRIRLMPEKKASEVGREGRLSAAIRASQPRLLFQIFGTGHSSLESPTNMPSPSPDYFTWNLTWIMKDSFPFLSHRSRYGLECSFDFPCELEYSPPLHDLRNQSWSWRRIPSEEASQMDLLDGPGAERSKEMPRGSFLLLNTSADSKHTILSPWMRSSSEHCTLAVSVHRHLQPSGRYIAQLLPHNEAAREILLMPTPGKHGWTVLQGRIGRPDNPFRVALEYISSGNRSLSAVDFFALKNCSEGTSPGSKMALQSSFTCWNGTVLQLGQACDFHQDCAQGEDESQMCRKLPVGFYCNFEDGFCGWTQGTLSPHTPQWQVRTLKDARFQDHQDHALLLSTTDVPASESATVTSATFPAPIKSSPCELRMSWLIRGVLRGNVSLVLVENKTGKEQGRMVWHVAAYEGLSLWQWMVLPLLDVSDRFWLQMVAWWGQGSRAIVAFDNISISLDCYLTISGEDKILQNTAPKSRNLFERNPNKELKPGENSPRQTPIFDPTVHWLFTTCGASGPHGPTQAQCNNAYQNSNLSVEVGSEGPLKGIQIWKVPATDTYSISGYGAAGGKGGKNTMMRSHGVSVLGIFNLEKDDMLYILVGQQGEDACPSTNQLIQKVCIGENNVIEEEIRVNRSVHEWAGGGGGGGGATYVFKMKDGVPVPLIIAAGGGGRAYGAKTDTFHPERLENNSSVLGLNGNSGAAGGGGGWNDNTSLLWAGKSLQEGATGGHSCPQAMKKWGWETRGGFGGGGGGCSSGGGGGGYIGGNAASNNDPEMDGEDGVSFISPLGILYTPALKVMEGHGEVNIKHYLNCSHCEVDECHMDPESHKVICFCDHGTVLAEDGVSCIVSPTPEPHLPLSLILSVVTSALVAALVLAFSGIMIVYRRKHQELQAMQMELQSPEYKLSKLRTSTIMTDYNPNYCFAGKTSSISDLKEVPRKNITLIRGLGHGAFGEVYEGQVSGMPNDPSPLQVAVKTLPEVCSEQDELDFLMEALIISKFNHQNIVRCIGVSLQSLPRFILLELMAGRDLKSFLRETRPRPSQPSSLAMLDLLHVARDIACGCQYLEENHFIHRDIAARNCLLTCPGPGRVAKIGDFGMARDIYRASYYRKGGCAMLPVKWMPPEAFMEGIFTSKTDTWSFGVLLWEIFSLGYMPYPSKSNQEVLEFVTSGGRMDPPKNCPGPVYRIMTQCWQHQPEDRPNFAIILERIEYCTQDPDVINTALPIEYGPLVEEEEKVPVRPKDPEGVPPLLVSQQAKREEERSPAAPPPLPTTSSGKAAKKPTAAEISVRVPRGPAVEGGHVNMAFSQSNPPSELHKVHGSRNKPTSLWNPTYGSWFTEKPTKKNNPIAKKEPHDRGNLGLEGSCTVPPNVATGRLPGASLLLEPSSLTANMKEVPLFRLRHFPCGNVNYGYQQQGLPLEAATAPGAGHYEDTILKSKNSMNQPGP
T5 sequence (P08922 1883-2347 limits assumed): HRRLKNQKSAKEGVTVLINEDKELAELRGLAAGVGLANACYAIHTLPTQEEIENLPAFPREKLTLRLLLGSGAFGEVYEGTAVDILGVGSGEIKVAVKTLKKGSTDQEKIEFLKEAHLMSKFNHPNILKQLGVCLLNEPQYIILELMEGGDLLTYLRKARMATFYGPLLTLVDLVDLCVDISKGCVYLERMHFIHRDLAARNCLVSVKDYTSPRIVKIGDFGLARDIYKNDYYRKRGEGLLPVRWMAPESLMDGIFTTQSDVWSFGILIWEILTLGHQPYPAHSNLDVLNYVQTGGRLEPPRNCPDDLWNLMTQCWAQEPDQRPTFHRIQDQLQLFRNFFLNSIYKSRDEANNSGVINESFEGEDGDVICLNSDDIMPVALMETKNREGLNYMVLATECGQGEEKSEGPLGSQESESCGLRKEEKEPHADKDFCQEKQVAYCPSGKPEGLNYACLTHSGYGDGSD
T27 sequence (Q9UM73 19-1620 G1269A): as the sequence (Q9UM73 19-1620 G1202R) above, with R1184G, G1251A counted along it
T10 sequence (Q16620 32-822): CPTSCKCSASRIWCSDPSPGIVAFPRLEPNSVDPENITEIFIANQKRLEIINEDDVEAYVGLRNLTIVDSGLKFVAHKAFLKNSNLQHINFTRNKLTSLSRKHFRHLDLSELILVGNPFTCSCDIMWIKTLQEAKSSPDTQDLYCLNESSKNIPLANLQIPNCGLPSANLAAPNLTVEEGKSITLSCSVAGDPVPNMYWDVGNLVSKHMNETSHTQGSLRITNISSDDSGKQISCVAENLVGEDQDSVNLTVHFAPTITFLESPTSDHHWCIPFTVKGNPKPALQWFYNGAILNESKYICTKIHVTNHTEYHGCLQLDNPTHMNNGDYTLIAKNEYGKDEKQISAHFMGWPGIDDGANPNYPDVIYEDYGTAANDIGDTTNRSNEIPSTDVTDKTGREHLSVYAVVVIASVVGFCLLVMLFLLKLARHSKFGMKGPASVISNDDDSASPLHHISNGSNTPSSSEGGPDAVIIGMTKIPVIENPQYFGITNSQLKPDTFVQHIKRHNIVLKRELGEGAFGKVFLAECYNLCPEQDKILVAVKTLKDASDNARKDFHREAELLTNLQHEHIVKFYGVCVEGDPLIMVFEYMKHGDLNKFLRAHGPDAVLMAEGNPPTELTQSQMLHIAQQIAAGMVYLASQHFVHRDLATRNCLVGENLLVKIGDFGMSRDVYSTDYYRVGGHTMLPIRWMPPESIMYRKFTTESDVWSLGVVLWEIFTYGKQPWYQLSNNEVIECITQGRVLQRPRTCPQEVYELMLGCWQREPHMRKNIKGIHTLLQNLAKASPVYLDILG
T22 sequence (Q9UM73 with tags, fused parts or gaps INS1151T limits assumed): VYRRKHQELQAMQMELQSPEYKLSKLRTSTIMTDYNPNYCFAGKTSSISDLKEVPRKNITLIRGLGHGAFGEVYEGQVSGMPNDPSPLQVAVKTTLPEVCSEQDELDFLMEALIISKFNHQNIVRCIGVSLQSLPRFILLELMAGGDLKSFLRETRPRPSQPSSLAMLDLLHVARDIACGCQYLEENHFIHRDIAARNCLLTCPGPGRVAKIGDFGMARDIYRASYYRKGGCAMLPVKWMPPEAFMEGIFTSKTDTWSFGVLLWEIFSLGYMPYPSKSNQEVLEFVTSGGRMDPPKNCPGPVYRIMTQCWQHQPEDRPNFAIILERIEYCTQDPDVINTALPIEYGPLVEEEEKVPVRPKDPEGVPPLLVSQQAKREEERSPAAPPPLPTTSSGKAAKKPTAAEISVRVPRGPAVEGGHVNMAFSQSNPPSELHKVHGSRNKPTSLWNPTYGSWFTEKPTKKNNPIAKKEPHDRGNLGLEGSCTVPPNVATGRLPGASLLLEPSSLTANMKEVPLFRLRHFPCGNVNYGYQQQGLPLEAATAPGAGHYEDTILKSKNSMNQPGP

For `C[C@@H]1CN(C(=O)c2ccc(NC(=O)c3cc(O[C@H](C)c4c(Cl)ccc(F)c4Cl)c(N)nn3)cc2)C[C@H](C)N1` [Crystalline form D], the “change in crystalline form” value ([1]; dried at room temperature or dried in vacuum at room temperature) was “transformed into Crystalline form B”.

With `C[C@@H]1CN(C(=O)c2ccc(NC(=O)c3cc(O[C@H](C)c4c(Cl)ccc(F)c4Cl)c(N)nn3)cc2)C[C@H](C)N1` [Crystalline form E] the “change in crystalline form” value ([1]; placed in a desiccator for 2 days) was “transformed into Crystalline form A”.

With `C[C@@H]1CN(C(=O)c2ccc(NC(=O)c3cc(O[C@H](C)c4c(Cl)ccc(F)c4Cl)c(N)nn3)cc2)C[C@H](C)N1` [compound of Formula I, {5-[(1R)-1-(2,6-dichloro-3-fluorophenyl)ethoxy]-6-aminopyridazin-3-ly}-N-{4-[((3S,5R)-3,5-dimethylpiperazinyl)carbonyl]phenyl} carboxamide hydrochloride] the pIC50 (EPHB1) was 8.07, the pIC50 (ALK (G1269S)) was 8.86 and the pIC50 (ALK) was 9.80. It also gave a pIC50 (ALK (G1202R)) of 8.42, a pIC50 (ROS1-GOPC) of 9.01 and a pIC50 (TRKC) of 9.34. It also gave a pIC50 (ALK (C1156Y)) of 9.55, a pIC50 (ALK(L1152R)) of 9.24 and a pIC50 (EPHA2) of 8.94. It also gave a pIC50 (TRKB) of 8.47, a pIC50 (TRKA-TPR) of 8.91 and a pIC50 (ALK (R1275Q)) of 8.97. It also gave a pIC50 (ALK (T1151M)) of 9.89, a pIC50 (EPHA1) of 8.21 and a pIC50 (ROS/ROS1) of 8.85. The pIC50 (TRKA-TFG (TRK-T3)) was 9.34, the pIC50 (TRKA-TPM3) was 9.21 and the pIC50 (TRKA) was 8.10. For the same compound, the pIC50 (ALK (F1174L)) was 9.80, the pIC50 (c-MET) was 8.02 and the pIC50 (ALK-NPM1) was 9.17. It also gave a pIC50 (ALK (T1151-L1152insT)) of 9.59, a pIC50 (CSF1R (FMS)) of 7.87 and a pIC50 (ALK (Fl 174L)-EML4) of 9.28. The pIC50 (ALK(L1196M)) was 9.49, the pIC50 (ALK (Fl 174L)-NPM1) was 9.33 and the pIC50 (ALK (G1269A)) was 8.94. The pIC50 (ALK-TPM3) was 9.68, the pIC50 (NEK1) was 8.22 and the pIC50 (ALK-TFG) was 9.14. It also gave a pIC50 (ALK (F1174S)) of 9.77 and a pIC50 (ALK (S1206R)) of 9.77.

In the case of `C[C@@H](Oc1cc(-c2cnn(C3CCNCC3)c2)cnc1N)c1c(Cl)ccc(F)c1Cl` [crizotinib, Crizotinib], the disease control ([2]; Phase I clinical trial) is given as 90%, the “objective response rate (ORR)” value ([2]; Phase I clinical trial) is given as 64% and the “time of treatment until resistance and disease progression” value ([2]; most patients) is given as 6-18 months.
